Values belong to the compound of their own block, whether it stands above or below them.
Assays:
HEK-293 = experiment: Cell toxicity, MTT-based EZ4U assay, HEK-293; set-up: species or system human; details: HEK-293, 1.56–500 µmol/L
Method: (§1) In this study, we utilized the RAW 264.7 macrophages line (obtained from ATCC: code TIB-71™),human embryonic kidney cell line HEK-293 (obtained from ATCC: code CRL-1573™)and two human cancer cell cultures: the colon carcinoma cell line CaCo-2 and the adenocarcinomic human alveolar basal epithelial cell A549 (also obtained from ATCC: codesHTB-37™ and CCL-185™).These cell lines were cultured in Dulbecco’s modified Eagle medium (DMEM) from Gibco by Life Technologies (LifeTech Austria, Vienna, Austria). The growth medium was supplemented with 5% fetal bovine serum (FBS) from Gibco by Life Technologies and 1% penicillin-streptomycin obtained from Sigma-Aldrich (Vienna, Austria). The cells were maintained at 37 °C with 5% CO2 in a humidified incubator, and regular checks for mycoplasma contamination were carried out.
(§2) For experimental purposes, the cells were seeded into 96-well plates at a density of 2 × 10^4 cells/mL, with each well containing 100 µL of the cell suspension. The cells were allowed to adhere for 24 h. […] The stock solutions of these compounds were prepared in water with 10% (v/v) dimethyl sulfoxide (DMSO) and stored at 4 °C.
(§3) To assess cell viability after 72 h of exposure to the compounds, we employed a 3-(4,5-dimethylthiazol-2-yl)-2,5-diphenyltetrazolium bromide (MTT)-based vitality assay kit (EZ4U, Biomedica, Vienna, Austria). Briefly, we added 20 µL of the EZ4U assay solution to each well and incubated the plates in the dark for 2 h. Subsequently, we measured the absorbance using a microplate reader at 450 nm, with 620 nm as a reference to reduce unspecific background values. For reliability, all experiments were conducted three times with triplicate samples.

[1] = Cell toxicity, MTT-based EZ4U assay, HEK-293; set-up: species or system human; details: human, HEK-293 cells (embryonic kidney), HEK, 72 h
Method: as §1, §2, §3

[2] = tested on: reactive oxygen species (ROS); experiment: ROS production (H2DCFDA) in infected RAW 264.7 macrophages; type: cell-based, murine; details: RAW 264.7 macrophages infected with L. (V.) braziliensis
Method: To quantify the levels of ROS generated by L. (V.) braziliensis-infected RAW 264.7 macrophages, the following procedure was employed: RAW 264.7 macrophages (1 × 10^5 cells per well) were added to a 96-well plate, with each well containing 100 μL of supplemented DMEM medium. These cells were allowed to incubate for 3 h at 37 °C with 5% CO2 to promote cell adhesion. Subsequently, the macrophages were infected with L. (V.) braziliensis at a ratio of 10:1 (promastigotes to macrophages) and incubated for 4 h. After the infection period, the cells were plated and incubated with various concentrations of test substances, ranging from 3.12 to 25 μmol/L. This incubation was carried out at 37 °C with 5% CO2 for duration of 72 h. Following the incubation period, 10 µL of H2DCFDA dye was added to each well, resulting in a final concentration of 20 µmol/L. The cells were then incubated at 37 °C in the dark for 30 min. The fluorescent intensity was measured using a fluorescence plate reader (FLx800) at an excitation wavelength of 485 nm and an emission wavelength of 528 nm. The fold change in ROS levels was calculated by comparing the results to a normal control.

terminal ileum = experiment: Spasmolytic effect on terminal ileum (KCl contraction); details: guinea pig terminal ilea, KCl-induced contraction
Method: Guinea pigs of either sex weighing between 250 or 380 g were utilized in this study. The animals were housed in a controlled environment in an air-conditioned room, maintaining a temperature of 22 to 24 °C and a relative humidity of 50% to 60%. A 12 h light–dark cycle was maintained.
On the day of the experiments, the animals were euthanized via cervical dislocation. The heart, aorta, pulmonary artery, and ileum were surgically removed and immersed in Krebs–Henseleit solution, with the following composition: NaCl 144.9 mM, KCl 4.73 mM, CaCl2 3.2 mM, MgSO4 1.18 mM, NaHCO3 24.9 mM, KH2PO4 1.18 mM, and glucose 10 mM, with the pH maintained at 7.2–7.4. This solution was continuously aerated with a mixture of 95% O2 and 5% CO2.
Papillary muscles were isolated from the right ventricle of the heart and meticulously cleared of Purkinje fibers to prevent spontaneous activity. To ensure adequate oxygen supply, only muscles with a diameter less than 0.87 mm were used. The right atrium was also dissected for assessment of chronotropic activity. Both the aorta and pulmonary artery were cleaned and cut into 5 mm rings, while the ileum was sectioned into pieces measuring 1 to 2 cm.
One end of the dissected tissues was securely tied with silver wire for attachment to a tissue holder, while the other end was connected to a force transducer (Transbridge™, 4-Channel Transducer Amplifier, World Precision Instruments, Sarasota, FL, USA). For contractile measurements, the terminal ileum was stimulated with 60 mM KCl, and the pulmonary artery and aorta rings were exposed to a 90 mM KCl solution. Papillary muscles were electrically stimulated using an Anapulse Stimulator Model 301-T and an Isolation Unit Model 305-1 (WPI, Hamden, CT, USA) with rectangular pulses of 3 ms duration at a frequency of 1 Hz. The amplitude of the stimulation pulse was maintained at 10% above the threshold level. To optimize contractility, a constant resting tension was applied throughout the experiment: 3.9 mN for papillary muscle, 4.9 mN for terminal ileum, 10.4 mN for the right atrium, and 19.6 mN for aorta and pulmonary artery rings.
Following a 30 min control period, different concentrations of test compounds were cumulatively added to the bath solution every 45 min until a stable effect was achieved. The responses were recorded using a chart recorder (BD 112 Dual Channel, Kipp &Zonen, PO Box 507, 2624 BC, Delft, Holland) for subsequent evaluation. Stock concentrations of the test compounds were prepared using DMSO. To account for any potential DMSO effect, control experiments were conducted with the solvent alone, and the observed effects were subtracted from the responses elicited by the test compounds.

spasmolytic effect / contraction force in the terminal ileum (terminal ileum): decrease in contraction force
SMILES: O=C(/N=C(/NCc1ccccc1)Nc1ccc(I)cc1)c1ccccc1 [LQOF-G7, (Z)-N-benzoyl-N-benzyl-N-(4-iodophenyl)guanidine]

spasmolytic effect / contraction force in the terminal ileum (terminal ileum): decrease in contraction force
SMILES: O=C(/N=C(/NCc1ccc(Cl)cc1Cl)Nc1ccc(Br)cc1)c1ccccc1 [LQOF-G32, (Z)-N-benzoyl-N-(2,4-di-chlorobenzyl)-N-(4-bromophenyl)guanidine]
toxic effects on cell viability (HEK-293): No toxic effects
viability at 72 h, 2.34 µmol/L [1]: 93 ± 5.3%
viability at 72 h, 4.6875 µmol/L [1]: 95 ± 12.7%
viability at 72 h, 9.375 µmol/L [1]: 89 ± 7.9%
viability at 72 h, 18.75 µmol/L [1]: 94 ± 8.9%
viability at 72 h, 37.5 µmol/L [1]: 91 ± 6.9%
viability at 72 h, 75 µmol/L [1]: 91 ± 13.9%
viability at 72 h, 150 µmol/L [1]: 94 ± 12.7%
viability at 72 h, 300 µmol/L [1]: 118 ± 13.9%
viability at 72 h, 600 µmol/L [1]: 185 ± 10.1%

Further lines, the compound ahead of its results:

SMILES: O=C(/N=C(/NCc1ccccc1)Nc1ccc([N+](=O)[O-])cc1)c1ccccc1 [LQOF-G1, (Z)-N-benzoyl-N-benzyl-N-(4-nitrophenyl)guanidine]
toxic effects on cell viability (HEK-293): No toxic effects
viability at 72 h, 2.34 µmol/L [1]: 99 ± 10%
viability at 72 h, 4.6875 µmol/L [1]: 104 ± 11%
viability at 72 h, 9.375 µmol/L [1]: 125 ± 8.1%
viability at 72 h, 18.75 µmol/L [1]: 125 ± 9.4%
viability at 72 h, 37.5 µmol/L [1]: 100 ± 11%
viability at 72 h, 75 µmol/L [1]: 115 ± 7%
viability at 72 h, 150 µmol/L [1]: 111 ± 5%
viability at 72 h, 300 µmol/L [1]: 117 ± 6%
viability at 72 h, 600 µmol/L [1]: 115 ± 10%
ROS level [2]: increased
spasmolytic effect / contraction force in the terminal ileum (terminal ileum): decrease in contraction force

SMILES: O=C(/N=C(/NCc1ccccc1)Nc1ccc(Br)cc1)c1ccccc1 [LQOF-G2, (Z)-N-benzoyl-N-benzyl-N-(4-bromophenyl)guanidine]
toxic effects on cell viability (HEK-293): No toxic effects
viability at 72 h, 2.34 µmol/L [1]: 104 ± 2.9%
viability at 72 h, 4.6875 µmol/L [1]: 109 ± 9.6%
viability at 72 h, 9.375 µmol/L [1]: 103 ± 13.5%
viability at 72 h, 18.75 µmol/L [1]: 108 ± 8.6%
viability at 72 h, 37.5 µmol/L [1]: 96 ± 2.9%
viability at 72 h, 75 µmol/L [1]: 99 ± 8.5%
viability at 72 h, 150 µmol/L [1]: 145 ± 3.3%
viability at 72 h, 300 µmol/L [1]: 123 ± 7.1%
viability at 72 h, 600 µmol/L [1]: 133 ± 8.4%
ROS level [2]: increased
spasmolytic effect / contraction force in the terminal ileum (terminal ileum): decrease in contraction force

SMILES: CC(C)(C)c1ccc(N/C(=N\C(=O)c2ccccc2)NCc2ccccc2)cc1 [LQOF-G6, (Z)-N-benzoyl-N-benzyl-N-(4-tert-butylphenyl)guanidine]
ROS level [2]: increased

— publication PMC10813298, “Evidence of Guanidines Potential against Leishmania (Viannia) braziliensis: Exploring In Vitro Effectiveness, Toxicities and of Innate Immunity Response Effects” (Biomolecules, 2023)
